According to patent US10774051B2, “6-membered heterocyclic derivatives and pharmaceutical composition comprising the same” (Shionogi & Co., Ltd., priority 2015, dated 2020):

Target: human P2X7 receptor (Homo sapiens, UniProt Q99572, R270H/Y155H)
Test: Evaluation of human P2X7 receptor inhibitory activity (Yo-Pro uptake, BzATP stimulation, FLIPR TETRA)
Type: cell-based
Details: 1321N1 cells stably expressing human P2X7 receptor; BzATP stimulation, Yo-Pro uptake; read-out: IC50 (antagonistic activity for the human P2X7 receptor)
In short: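 Yo-Pro dye uptake triggered by BzATP was monitored by FLIPR in human P2X7-transfected 1321N1 cells (SNP variant) in HEPES-buffered HBSS, pH 7.4-7.5. Compound was dispensed 8 min post-stimulation, then signal read for 20 min; IC50 derived logistically from inhibition of the fluorescence range.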

Compound	IC50
COc1cn(Cc2ccc(F)c(Cl)c2)c(Nc2cc(-c3ncco3)ccc2C)cc1=O [Compound I-0953]	25 nM
COc1cn(Cc2ccc(F)c(Cl)c2)c(Nc2cc(C#N)ccc2C)cc1=O [Compound I-0957]	110 nM
COc1ccc(C)c(Oc2cc(=O)c(OC)cn2Cc2ccc(F)c(Cl)c2)c1 [Compound I-0961]	410 nM
COc1cn(Cc2ccc(F)c(Cl)c2)c(Oc2cc(-c3ncco3)ccc2C)cc1=O [Compound I-0965]	440 nM
COc1cn(Cc2ccc(F)c(Cl)c2)c(Oc2cc3sc(C)nc3cc2C)cc1=O [Compound I-0966]	480 nM
COc1cnc(Nc2cccc(Cl)c2C)n(Cc2ccccc2)c1=O [Compound I-0967]	450 nM
COc1cc(C)c(Nc2ncc(OC)c(=O)n2Cc2ccc(F)c(Cl)c2)cc1C [Compound I-0985]	65 nM
COc1cnc(Nc2cc(N3CCCC3=O)ccc2C)n(Cc2ccc(F)c(Cl)c2)c1=O [Compound I-0986]	24 nM
COc1cnc(Nc2cc3sc(C)nc3cc2C)n(Cc2ccc(F)c(Cl)c2)c1=O [Compound I-0987]	110 nM
COc1cnc(Nc2cc(C)cc3[nH]ccc23)n(Cc2ccc(F)c(Cl)c2)c1=O [Compound I-0989]	300 nM
Cc1c(Cl)cccc1Nc1cc(=O)n(C)c(=O)n1Cc1ccccc1 [Compound I-0990]	320 nM
COc1cc(C)c(Nc2cc(=O)n(C)c(=O)n2Cc2cc(F)c(F)c(F)c2)cc1C [Compound I-0991]	29 nM
Cn1ccc2c(Nc3nc(=O)c(F)cn3Cc3ccc(F)c(Cl)c3)cccc21 [Compound I-1019]	4 nM

Same assay, conditions: antagonistic activity for the human P2X7 receptor; read-out: IC50

Compound	IC50
COc1cn(Cc2ccccc2)c(Nc2ccc(Cl)cc2C)cc1=O [Compound I-0950]	100 to 500 nM
COc1cn(Cc2ccccc2)c(Nc2cc(C)c(OC(F)F)cc2C)cc1=O [Compound I-0951]	100 to 500 nM
COc1ccc(C)c(Nc2cc(=O)c(OC)cn2Cc2ccccc2)c1 [Compound I-0952]	100 to 500 nM
COc1cc(C)c(Nc2cc(=O)c(OC)cn2Cc2ccc(F)c(Cl)c2)cc1C [Compound I-0954]	10 to 100 nM
COc1ccc(Cl)c(Nc2cc(=O)c(OC)cn2Cc2ccc(F)c(Cl)c2)c1 [Compound I-0955]	10 to 100 nM
COc1cn(Cc2ccc(F)c(Cl)c2)c(Nc2cc(C(F)(F)F)ccc2C)cc1=O [Compound I-0956]	100 to 500 nM
COc1cn(Cc2ccc(F)c(Cl)c2)c(Nc2ccc(C#N)cc2C)cc1=O [Compound I-0958]	100 to 500 nM
COc1ccc(Nc2cc(=O)c(OC)cn2Cc2ccccc2)c(C)c1 [Compound I-0959]	500 to 1000 nM
COc1cc(C)c(Nc2c(Cl)c(=O)c(OC)cn2Cc2ccc(F)c(Cl)c2)cc1C [Compound I-0964]	100 to 500 nM
COc1cnc(Nc2cccc(Cl)c2C)n(Cc2cccc(Cl)c2)c1=O [Compound I-0969]	500 to 1000 nM
COc1cnc(Nc2cccc(Cl)c2C)n(Cc2ccc(F)c(Cl)c2)c1=O [Compound I-0971]	100 to 500 nM
COc1cnc(Nc2cccc(Cl)c2C)n(Cc2ccc(F)c(F)c2)c1=O [Compound I-0973]	100 to 500 nM
COc1cnc(Nc2cc(C)c(Cl)cc2C)n(Cc2ccccc2)c1=O [Compound I-0981]	500 to 1000 nM
COc1cc(Nc2nc(=O)c(F)cn2Cc2ccc(F)c(F)c2)c(C)cc1Cl [Compound I-0993]	< 10 nM
Cc1ccc(OC(F)F)cc1Nc1nc(=O)c(F)cn1Cc1cc(F)cc(F)c1 [Compound I-0994]	10 to 100 nM
O=c1nc(Nc2cccc3c2CCN3)n(Cc2cc(F)c(F)c(F)c2)cc1F [Compound I-0995]	10 to 100 nM
COCc1ccc(C)c(Nc2nc(=O)c(F)cn2Cc2cc(F)cc(F)c2)c1 [Compound I-0996]	10 to 100 nM
Cc1ccc(OCC2CC2)cc1Nc1nc(=O)c(F)cn1Cc1cc(F)cc(F)c1 [Compound I-0997]	10 to 100 nM
CCOc1ccc(C)c(Nc2nc(=O)c(F)cn2Cc2ccc(F)c(Cl)c2)c1 [Compound I-0998]	< 10 nM
CCOc1ccc(C)c(Nc2nc(=O)c(F)cn2Cc2ccc(F)c(F)c2)c1 [Compound I-0999]	< 10 nM
COc1nc(C)c(Nc2nc(=O)c(F)cn2Cc2cc(F)c(F)c(F)c2)cc1C [Compound I-1000]	< 10 nM
Cc1cc2c(cc1Nc1nc(=O)c(F)cn1Cc1cc(F)cc(F)c1)CCO2 [Compound I-1001]	< 10 nM
CCOc1ccc(C)c(Nc2nc(=O)c(F)cn2Cc2cc(F)cc(F)c2)c1 [Compound I-1002]	10 to 100 nM

Compound	IC50
COc1nc(C)c(Nc2nc(=O)c(F)cn2Cc2cc(F)cc(F)c2)cc1C [Compound I-1003]	< 10 nM
COc1nc(C)c(Nc2nc(=O)c(F)cn2Cc2ccc(F)c(Cl)c2)cc1C [Compound I-1004]	< 10 nM
COc1cc(Nc2nc(=O)c(F)cn2Cc2cc(F)cc(F)c2)c(C)cc1Cl [Compound I-1005]	< 10 nM
COc1cc(Nc2nc(=O)c(F)cn2Cc2cc(F)c(F)c(F)c2)c(C)cc1Cl [Compound I-1006]	< 10 nM
CCOc1ccc(C)c(Nc2nc(=O)c(F)cn2Cc2cc(F)c(F)c(F)c2)c1 [Compound I-1007]	< 10 nM
COc1nc(C)c(Nc2nc(=O)c(F)cn2Cc2ccc(F)c(F)c2)cc1C [Compound I-1008]	< 10 nM
Cc1nc2cc(C)c(Nc3nc(=O)c(F)cn3Cc3cc(F)cc(F)c3)cc2s1 [Compound I-1009]	< 10 nM
Cc1nc2cc(C)c(Nc3nc(=O)c(F)cn3Cc3ccc(F)c(F)c3)cc2s1 [Compound I-1010]	< 10 nM
Cc1nc2cc(C)c(Nc3nc(=O)c(F)cn3Cc3ccc(F)cc3)cc2s1 [Compound I-1011]	< 10 nM
Cc1ccc(CO)cc1Nc1nc(=O)c(F)cn1Cc1ccc(F)c(F)c1 [Compound I-1012]	< 10 nM
Cc1ccc(CO)cc1Nc1nc(=O)c(F)cn1Cc1ccc(F)c(Cl)c1 [Compound I-1013]	< 10 nM
Cc1ccc(CO)cc1Nc1nc(=O)c(F)cn1Cc1cc(F)cc(F)c1 [Compound I-1014]	< 10 nM
Cc1ccc(CO)cc1Nc1nc(=O)c(F)cn1Cc1cc(F)c(F)c(F)c1 [Compound I-1015]	< 10 nM
Cc1nc2[nH]ccc2cc1Nc1nc(=O)c(F)cn1Cc1cc(F)cc(F)c1 [Compound I-1016]	10 to 100 nM
Cc1nc2[nH]ccc2cc1Nc1nc(=O)c(F)cn1Cc1cc(F)c(F)c(F)c1 [Compound I-1017]	10 to 100 nM
Cn1ccc2c(Nc3nc(=O)c(F)cn3Cc3cc(F)c(F)c(F)c3)cccc21 [Compound I-1018]	< 10 nM
Cn1ccc2c(Nc3nc(=O)c(F)cn3Cc3ccc(F)c(F)c3)cccc21 [Compound I-1020]	< 10 nM
Cn1ccc2c(Nc3nc(=O)c(F)cn3Cc3cc(F)cc(F)c3)cccc21 [Compound I-1021]	< 10 nM
O=c1nc(Nc2cccc3[nH]ccc23)n(Cc2cc(F)cc(F)c2)cc1F [Compound I-1022]	< 10 nM
O=c1nc(Nc2cccc3[nH]ccc23)n(Cc2cc(F)c(F)c(F)c2)cc1F [Compound I-1023]	< 10 nM
O=c1nc(Nc2cccc3[nH]ccc23)n(Cc2ccc(F)c(Cl)c2)cc1F [Compound I-1024]	< 10 nM
O=c1nc(Nc2cccc3[nH]ccc23)n(Cc2ccc(F)c(F)c2)cc1F [Compound I-1025]	< 10 nM
Cc1cc2c(cc1Nc1nc(=O)c(F)cn1Cc1ccc(F)c(Cl)c1)COC2 [Compound I-1026]	< 10 nM

Compound	IC50
Cc1cc2c(cc1Nc1nc(=O)c(F)cn1Cc1cc(F)cc(F)c1)COC2 [Compound I-1027]	10 to 100 nM
Cc1cc2c(cc1Nc1nc(=O)c(F)cn1Cc1ccc(F)c(F)c1)COC2 [Compound I-1028]	< 10 nM
CCOc1cc(Nc2nc(=O)c(F)cn2Cc2cc(F)c(F)c(F)c2)c(C)cc1F [Compound I-1030]	< 10 nM
CCOc1cc(Nc2nc(=O)c(F)cn2Cc2ccc(F)c(Cl)c2)c(C)cc1F [Compound I-1031]	< 10 nM
CCOc1cc(Nc2nc(=O)c(F)cn2Cc2cc(F)cc(F)c2)c(C)cc1F [Compound I-1032]	10 to 100 nM
CCOc1cc(Nc2nc(=O)c(F)cn2Cc2ccc(F)c(F)c2)c(C)cc1F [Compound I-1033]	< 10 nM
CCOc1ccc(Nc2nc(=O)c(F)cn2Cc2cc(F)c(F)c(F)c2)c(C)c1 [Compound I-1034]	< 10 nM
CCOc1ccc(Nc2nc(=O)c(F)cn2Cc2ccc(F)c(Cl)c2)c(C)c1 [Compound I-1035]	10 to 100 nM
COc1ccc(Nc2nc(=O)c(F)cn2Cc2cc(F)c(F)c(F)c2)c(C)n1 [Compound I-1036]	10 to 100 nM
COc1ccc(Nc2nc(=O)c(F)cn2Cc2cc(F)cc(F)c2)c(C)n1 [Compound I-1037]	10 to 100 nM
CCOc1cc(C)c(Nc2nc(=O)c(F)cn2Cc2cc(F)c(F)c(F)c2)cc1F [Compound I-1038]	10 to 100 nM
Cc1cc(OC(F)F)ccc1Nc1nc(=O)c(F)cn1Cc1cc(F)c(F)c(F)c1 [Compound I-1039]	10 to 100 nM
Cc1cc2[nH]ccc2cc1Nc1nc(=O)c(F)cn1Cc1ccc(F)c(Cl)c1 [Compound I-1042]	< 10 nM
Cc1cc2[nH]ccc2cc1Nc1nc(=O)c(F)cn1Cc1ccc(F)c(F)c1 [Compound I-1043]	< 10 nM
Cc1cc2[nH]ccc2cc1Nc1nc(=O)c(F)cn1Cc1cc(F)cc(F)c1 [Compound I-1044]	< 10 nM
Cc1cc2[nH]ccc2cc1Nc1nc(=O)c(F)cn1Cc1cc(F)c(F)c(F)c1 [Compound I-1045]	< 10 nM
Cc1cc2c(cc1Nc1nc(=O)c(F)cn1Cc1cc(F)c(F)c(F)c1)CCO2 [Compound I-1046]	< 10 nM
CCOc1ccc(Nc2nc(=O)c(F)cn2Cc2cc(F)cc(F)c2)c(C)c1 [Compound I-1047]	10 to 100 nM
CCOc1ccc(Nc2nc(=O)c(F)cn2Cc2ccc(F)c(F)c2)c(C)c1 [Compound I-1048]	10 to 100 nM
COc1ccc(Nc2nc(=O)c(F)cn2Cc2ccc(F)c(F)c2)c(C)n1 [Compound I-1049]	10 to 100 nM
COc1cc(Nc2nc(=O)c(F)cn2Cc2ccc(F)c(Cl)c2)c(C)cc1F [Compound I-1051]	< 10 nM
